Reference: patent publication US5681738A, “Use of 10-oxo-trans-8-decenoic acid in mushroom cultivation” (The Penn State Research Foundation, priority 1992, dated 1997)

Experiments:
[1] = Solubility; type: physicochemical
[2] = system: Agaricus bisporus mycelia; test: Laccase activity of mycelia grown in potato dextrose yeast broth at 25° C.; type: cell-based, Agaricus bisporus (hybrid off-white)
Experimental: The commercial mushroom spawn (hybrid off-white), Agaricus bisporus (Lange) Imbach, was obtained from Alpha Spawn Co., Avondale, Pa., and inoculated onto potato dextrose yeast (PDY) agar (Difco) and incubated at 25° C. A pure culture was obtained from the grain spawn grown on petri dishes and re-inoculated into PDY agar and maintained at 25° C. before use.
The mushroom culture was grown on PDY agar or in PDY broth, both containing 0.5% yeast extract. The broth was dispensed into flasks prior to autoclaving, 50 mL. per flask, while 5 mL of sterile ODA solutions were aseptically added into flasks before inoculation.
To prepare ODA solutions, about 18.4 mg (0.1 mmole) of 10-oxo-trans-8-decenoic acid prepared as described above were dissolved in i mL ethanol and diluted with deionized water to 100 mL to give a molar concentration of 10^-3 M, and then diluted in order to add 1.0 mL of the solutions to each flask to give the required final concentrations.
Sterile ODA solutions were aseptically added into the autoclaved agar medium to achieve the desired final ODA concentrations, and then the medium was dispensed into petri dishes, ca 30 ml per dish. The levels of ODA tested included 2×10^-4, 10^-4, 10^-5, 10^-6 and 10^-7 M for both PDY agar and broth. These flasks and dishes were inoculated with 1 mm mycelial plugs from 4-week old cultures and incubated statically at 25° C. for 5 weeks. Each week, ca 300 μL of broth was aseptically taken from the flasks for laccase assay, while the colony diameter of every petri dish was measured using a vernier caliper to calculate the linear growth of the culture.
The activity of laccase was assayed as described in Leonowicz et al., (1981). The reaction mixture consisted of 1.0 ml of 0.04M MES (2-[N-morpholino] ethanesulfonic acid, Sigma)-NaOH buffer, pH 5.3, 200 μL of 0.5 mM syringaldazine ([…], Sigma) in EtOH, and 100 μL of culture broth withdrawn from the flasks making up a final volume of 1.3 mL. The control mixture contained no culture broth. The change in absorbance was monitored for 5 mins at 525 nm. Laccase activity was expressed in units of kat, the conversion of 1 mole of syringaldazine per sec.
Methods for the estimation of total fungal growth include the measurement of dry matter, linear growth, carbon dioxide evolution, chitin, ATP as well as extracellular laccase activity (Cochrane, (1958); Wood, (1979)). In this research the linear growth rate was used to examine the growth of mushroom mycelia on agar plates, while the extracellular laccase activity and dry matter were determined to estimate the growth of mycelia in liquid cultures. Extracellular laccases (p-diphenol: oxygen oxidoreductase, EC 1.10.3.2) produced by various classes of fungi are reported to be involved in biotransformation of lignin and lignosulfonate (Anders et al., (1976)), as well as in the breakdown of cellulose by cellulase (Westermark et al., (1974a); Westermark et al., (1974b); Haars et al., (1980)). Although the role of laccase in growth and development of Agaricus bisporus is not well defined, it has been observed that laccase production correlated with mycelial biomass of this fungus (Wood, (1979); Matcham et al., (1985); Claydon et al., (1988)).

solubility ([1]; acetone, chloroform, ethanol, ethyl ether, methanol, methylene chloride and water): soluble
solubility ([1]; non-polar solvents such as pentane, hexane, heptane and benzene): slightly soluble
mycelial growth by laccase activity and dry matter (in words) ([2]; 10^-6 and 10^-5 M (0.184 and 1.84 ppm), liquid culture): stimulated
SMILES: O=C/C=C/CCCCCCC(=O)O [ODA, 10-oxo-trans-8-decenoic acid]
LOG [Laccase activity (mkat/ml)] ([2]; ODA 2 × 10^-4 M (36.8 ppm), Week 1, control 0.49): 0.25 LOG (mkat/ml)
LOG [Laccase activity (mkat/ml)] ([2]; ODA 2 × 10^-4 M (36.8 ppm), Week 2, control 1.19): 1.84 LOG (mkat/ml)
LOG [Laccase activity (mkat/ml)] ([2]; ODA 2 × 10^-4 M (36.8 ppm), Week 3, control 1.97): 2.07 LOG (mkat/ml)
LOG [Laccase activity (mkat/ml)] ([2]; ODA 2 × 10^-4 M (36.8 ppm), Week 4, control 2.37): 2.15 LOG (mkat/ml)
LOG [Laccase activity (mkat/ml)] ([2]; ODA 2 × 10^-4 M (36.8 ppm), Week 5, control 2.74): 2.38 LOG (mkat/ml)
LOG [Laccase activity (mkat/ml)] ([2]; ODA 10^-4 M (18.4 ppm), Week 1, control 0.49): 1.04 LOG (mkat/ml)
LOG [Laccase activity (mkat/ml)] ([2]; ODA 10^-4 M (18.4 ppm), Week 2, control 1.19): 2.13 LOG (mkat/ml)
LOG [Laccase activity (mkat/ml)] ([2]; ODA 10^-4 M (18.4 ppm), Week 3, control 1.97): 2.29 LOG (mkat/ml)
LOG [Laccase activity (mkat/ml)] ([2]; ODA 10^-4 M (18.4 ppm), Week 4, control 2.37): 2.38 LOG (mkat/ml)
LOG [Laccase activity (mkat/ml)] ([2]; ODA 10^-4 M (18.4 ppm), Week 5, control 2.74): 2.64 LOG (mkat/ml)
LOG [Laccase activity (mkat/ml)] ([2]; ODA 10^-5 M (1.84 ppm), Week 1, control 0.49): 1.63 LOG (mkat/ml)
LOG [Laccase activity (mkat/ml)] ([2]; ODA 10^-5 M (1.84 ppm), Week 2, control 1.19): 2.62 LOG (mkat/ml)
LOG [Laccase activity (mkat/ml)] ([2]; ODA 10^-5 M (1.84 ppm), Week 3, control 1.97): 2.90 LOG (mkat/ml)
LOG [Laccase activity (mkat/ml)] ([2]; ODA 10^-5 M (1.84 ppm), Week 4, control 2.37): 3.20 LOG (mkat/ml)
LOG [Laccase activity (mkat/ml)] ([2]; ODA 10^-5 M (1.84 ppm), Week 5, control 2.74): 3.53 LOG (mkat/ml)
LOG [Laccase activity (mkat/ml)] ([2]; ODA 10^-6 M (0.184 ppm), Week 1, control 0.49): 1.16 LOG (mkat/ml)
LOG [Laccase activity (mkat/ml)] ([2]; ODA 10^-6 M (0.184 ppm), Week 2, control 1.19): 2.34 LOG (mkat/ml)
LOG [Laccase activity (mkat/ml)] ([2]; ODA 10^-6 M (0.184 ppm), Week 3, control 1.97): 2.76 LOG (mkat/ml)
LOG [Laccase activity (mkat/ml)] ([2]; ODA 10^-6 M (0.184 ppm), Week 4, control 2.37): 3.07 LOG (mkat/ml)
LOG [Laccase activity (mkat/ml)] ([2]; ODA 10^-6 M (0.184 ppm), Week 5, control 2.74): 3.43 LOG (mkat/ml)
LOG [Laccase activity (mkat/ml)] ([2]; ODA 10^-7 M (0.0184 ppm), Week 1, control 0.49): 0.73 LOG (mkat/ml)
LOG [Laccase activity (mkat/ml)] ([2]; ODA 10^-7 M (0.0184 ppm), Week 2, control 1.19): 2.15 LOG (mkat/ml)
LOG [Laccase activity (mkat/ml)] ([2]; ODA 10^-7 M (0.0184 ppm), Week 3, control 1.97): 2.57 LOG (mkat/ml)
LOG [Laccase activity (mkat/ml)] ([2]; ODA 10^-7 M (0.0184 ppm), Week 4, control 2.37): 2.86 LOG (mkat/ml)
LOG [Laccase activity (mkat/ml)] ([2]; ODA 10^-7 M (0.0184 ppm), Week 5, control 2.74): 3.08 LOG (mkat/ml)
